Measured values from US20070207975A1, “Materials and methods for treating and preventing Her-2/neu overexpressing, FAS-elevated cancer cells” (EVANSTON NORTHWESTERN HEALTHCARE, priority 2006, published 2007).

What was measured:
[1] = test system: SK-Br3 cells; assay: TUNEL apoptosis assay, SK-Br3; type: cell-based, human; conditions: GLA 10 μg/mL, trastuzumab 10 μg/mL, alone or together, 48 hours
Description: FIG. 6. […] After 72 hours, a TUNEL analysis was performed using the DeadEnd® Fluorometric TUNEL System (Promega Inc.) according to the manufacturer's protocol. The immunofluorescence photomicrographs of cells undergoing apoptosis (green staining) and the corresponding DAPI-counterstained photomicrographs are shown. […] Equal amounts of total protein (50 μg per lane) were subjected to Western blot analyses with a specific antibody against the p85 fragment of PARP, and then re-probed with a β-actin antibody. […] For each pair of columns, the height of the columns on the left represents the sum of the effect of each agent alone and, therefore, the expected apoptotic cell death if their effect was additive when used in combination. […] A) Cell surface expression of Her-2/neu protein in BT-474 and SK-Br3 cells was determined by flow cytometry using a mouse anti-Her-2/neu antibody directed against the extracellular domain of the p185^Her-2/neu oncoprotein (clone Ab-5; Oncogene Research Products; San Diego, Calif.). […] The mean fluorescence signal associated with cells for labeled p185^Her-2/neu was quantified using the Geo Mean (GM) fluorescence parameter provided with the software. […] Immunoreactive bands were detected by enhanced chemiluminescence reagent (Pierce, Rockford, Ill.). […] Densitometric values of protein bands were quantified using Scion Imaging Software (Scion Corp., Frederick, Md.).

[2] = test system: BT-474 cells; assay: TUNEL apoptosis assay, BT-474; type: cell-based, human
Description: FIG. 6. […] The immunofluorescence photomicrographs of cells undergoing apoptosis (green staining) and the corresponding DAPI-counterstained photomicrographs are shown. […] Equal amounts of total protein (50 μg per lane) were subjected to Western blot analyses with a specific antibody against the p85 fragment of PARP, and then re-probed with a β-actin antibody. […] For each pair of columns, the height of the columns on the left represents the sum of the effect of each agent alone and, therefore, the expected apoptotic cell death if their effect was additive when used in combination. The total height of the columns on the right indicates the observed apoptosis when the agents were used in combination. […] A) Cell surface expression of Her-2/neu protein in BT-474 and SK-Br3 cells was determined by flow cytometry using a mouse anti-Her-2/neu antibody directed against the extracellular domain of the p185^Her-2/neu oncoprotein (clone Ab-5; Oncogene Research Products; San Diego, Calif.). […] The mean fluorescence signal associated with cells for labeled p185^Her-2/neu was quantified using the Geo Mean (GM) fluorescence parameter provided with the software. […] Immunoreactive bands were detected by enhanced chemiluminescence reagent (Pierce, Rockford, Ill.). […] Densitometric values of protein bands were quantified using Scion Imaging Software (Scion Corp., Frederick, Md.).

[3] = test system: p185^Her-2/neu; conditions: cultured breast cancer cells; exogenous GLA supplementation; reference (16); cited from earlier work
[4] = test system: SK-Br3 and BT-474 cells; assay: Soft-agar colony-formation assay; type: cell-based, human
[5] = test system: SK-Br3 and BT-474 cells; assay: Anchorage-dependent cell proliferation (Coulter Counter); type: cell-based, human; conditions: low concentrations of OA, increasing concentrations of trastuzumab, or combination, 6 days
Description: (A) Left panel: exponentially growing SK-Br3 and BT-474 cells were trypsinized and plated in 24-well plates at a density of 10,000 cells/well. Cells were incubated for 24 hours to allow for attachment and starved for serum overnight, after which a zero time point was determined. […] Cells were counted at days 0, 3 and 6 with a Coulter Counter. All assays were performed three times in triplicate. The data are presented as mean number of cells×10^4/well (columns)±SD (bars) after 6 days treatment. […] For each pair of columns, the height of the columns on the left represents the sum of the effect of each agent alone and, therefore, the expected percentage of cell growth inhibition if their effect was additive when used in combination. […] Colony formation (≧50 μm) was assessed using a colony counter. Each experimental value represents the mean colony number (columns)±SD (bars) from three separate experiments in which triplicate dishes were counted. […]
SK-Br3 and BT-474 cells exponentially growing in IMEM-5% FBS were trypsinized and re-plated in 24-well plates at a density of 10,000 cells/well. Cells were incubated for 24 hours to allow for attachment, after which a zero time point was determined. […] Cell number was determined at days 0, 3 and 6 with a Coulter Counter (Coulter Electronics, Inc., Hialeah, Fla.). […]

[6] = test system: p27^Kip1; assay: Western blot of p27Kip1 expression; type: cell-based, human; conditions: BT-474; 72 hours; OA, trastuzumab or combination
Excerpt: Densitometric values of protein bands were quantified using Scion Imaging Software (Scion Corp., Frederick, Md.).

SMILES	cells that underwent apoptosis (TUNEL) [1]	cells that underwent apoptosis (TUNEL) ([2]; GLA 10 μg/mL, trastuzumab 10 μg/mL, alone or together, 48 hours)	proteolytic cleavage of the extracellular domain of p185^Her-2/neu [3]	anchorage-independent growth in soft agar, effect of GLA cotreatment ([4]; BT-474 and SK-Br3, GLA with suboptimal doses of trastuzumab)	anchorage-dependent cell growth [5]	TUNEL-positive cells ([2]; OA 5 μM, trastuzumab 10 μg/ml, alone or simultaneously, 72 hours)	anchorage-independent colony formation in soft agar ([4]; SK-Br3 and BT-474, OA, trastuzumab or co-exposure)	expression of p27^Kip1 [6]
CCCCCC=CCC=CCC=CCCCCC(=O)O [GLA, 6,9,12-octadecatrienoic acid]	3% (95% CI=2 to 4%)	5% (95% confidence interval [CI]=4% to 6%)	significantly diminished	enhanced the growth-inhibitory effects	–	–	–	–
CCCCCCCCC=CCCCCCCCC(=O)O [OA, 9-octadecenoic acid]	–	–	–	–	no notable effects	2%	slightly decreased	slight increase
